This note sets out measurements from patent US20160297830A1, “NOVEL COMPOUNDS USEFUL FOR THE TREATMENT OF BACTERIAL INFECTIOUS DISEASES” (GALAPAGOS NV, priority 2013, published 2016).

≈ marks a conversion by molar mass, not a printed value. Where only a bound is given, the exact number is not on record here.

This assay has as its system H. influenza Hi4 efflux pump KO. The experiment in a line: Antibacterial activity assay (MIC), H. influenza Hi4. It is filed as cell-based.

For `COC[C@@H]1[C@@H](O)[C@@H]2[C@H]3C=C[C@@H]4[C@@H](COC)C(=O)O[C@H]([C@H](O)COC)[C@H](C)/C=C(\C)[C@@]24O[C@H]3[C@@H]1OC(=O)c1cc(Br)c(Br)[nH]1` [Compound 34, 8-O-4,5-Dibromo-1H-pyrrole-2′-carbonylbranimycin], the MIC amounted to 8 mg/L (≈ 10.9 µM). Take `COC[C@@H]1[C@@H](O)[C@@H]2[C@H]3C=C[C@@H]4[C@@H](COC)C(=O)O[C@H]([C@H](O)COC)[C@H](C)/C=C(\C)[C@@]24O[C@H]3[C@@H]1OC(=O)c1cc(Br)c(Br)o1` [Compound 36, 8-O-4,5-Dibromofurane-2′-carbonylbranimycin]: the MIC was found to be 32 mg/L (≈ 43.6 µM).

Consider `COC[C@@H]1[C@@H](O)[C@@H]2[C@H]3C=C[C@@H]4[C@@H](COC)C(=O)O[C@H]([C@H](O)COC)[C@H](C)/C=C(\C)[C@@]24O[C@H]3[C@@H]1OC(=O)c1cc(Br)c(F)[nH]1` [Compound 37, 8-O-4-Bromo-5-Fluoro-1H-pyrrole-2′-carbonylbranimycin], for which the MIC is 16 mg/L (≈ 23.8 µM). Compound `COC[C@@H]1[C@@H](O)[C@@H]2[C@H]3C=C[C@@H]4[C@@H](COC)C(=O)O[C@H]([C@H](O)COC)[C@H](C)/C=C(\C)[C@@]24O[C@H]3[C@@H]1OC(=O)c1cc(F)c(F)[nH]1` [Compound 38, 8-O-4,5-Difluoro-1H-pyrrole-2′-carbonylbranimycin] came in with an MIC of 16 mg/L (≈ 26.2 µM). `COC[C@@H]1[C@@H](O)[C@@H]2[C@H]3C=C[C@@H]4[C@@H](COC)C(=O)O[C@H]([C@H](O)COC)[C@H](C)/C=C(\C)[C@@]24O[C@H]3[C@@H]1OC(=O)c1cc(C)n[nH]1` [Compound 39, 8-O-5-Methyl-1H-Pyrazole-3′-carbonylbranimycin]: the MIC is above 64 mg/L. With `COCC(=NO)[C@H]1OC(=O)[C@H](COC)[C@H]2C=C[C@H]3[C@H]4O[C@]2(/C(C)=C/[C@H]1C)[C@@H]3[C@H](O)[C@@H](COC)[C@H]4OC(=O)c1cc(F)c[nH]1` [Compound 40, 18-Deoxy-18-oximino-8-O-4-Fluoro-1H-pyrrole-2′-carbonylbranimycin], the MIC was determined as 2 mg/L (≈ 3.3 µM). In the case of `COCC(=NO)[C@H]1OC(=O)[C@H](COC)[C@H]2C=C[C@H]3[C@H]4O[C@]2(/C(C)=C/[C@H]1C)[C@@H]3[C@H](O)[C@@H](COC)[C@H]4OC(=O)c1cc(Cl)c[nH]1` [Compound 41, 18-Deoxy-18-oximino-8-O-4-Chloro-1H-pyrrole-2′-carbonylbranimycin] it was 8 mg/L (≈ 12.8 µM); in that of `COCC(=NOC(C)=O)[C@H]1OC(=O)[C@H](COC)[C@H]2C=C[C@H]3[C@H]4O[C@]2(/C(C)=C/[C@H]1C)[C@@H]3[C@H](O)[C@@H](COC)[C@H]4OC(=O)c1cc(Cl)c[nH]1` [Compound 42, 18-Acetylimino-18-deoxy-8-O-4-Chloro-1H-pyrrole-2′-carbonylbranimycin], 4 mg/L (≈ 6.01 µM). In the case of `CO[C@H]1C[C@H]2C=C[C@H]3[C@H]4O[C@]2(/C(C)=C/[C@@H](C)[C@@H]([C@@H](C)O)OC1=O)[C@@H]3[C@H](O)[C@@H](C)[C@H]4OC(=O)c1ccc[nH]1` [Nargenicin A1, reference compound], the MIC came to 0.5 mg/L (≈ 0.97 µM). Then `COC[C@@H]1[C@@H](O)[C@@H]2[C@H]3C=C[C@@H]4C[C@H](O)C(=O)O[C@H]([C@H](O)COC)[C@H](C)/C=C(\C)[C@@]24O[C@H]3[C@@H]1OC(=O)c1ccc[nH]1` [Nargenicin B1, reference compound], with 8 mg/L (≈ 14.2 µM). In the case of `CO[C@H]1C[C@H]2C=C[C@H]3[C@H]4O[C@]2(/C(C)=C/[C@@H](C)[C@@H]([C@@H](C)O)OC1=O)[C@@H]3[C@H](O)[C@@H](C)[C@H]4O` [Nodusmicin, reference compound] it was 2 mg/L (≈ 4.73 µM).
